# Values quoted from earlier work as cited in publication PMC10089180 (Proceedings of the National Academy of Sciences of the …, 2023).
# B1: prochemerin (21-163): Removal of the N-terminal signal peptide results in prochemerin (21-163) (protein, UniProt Q99969 21-163, looked up)
# pro-form: ELTEAQRRGLQVALEEFHKHPPVQWAFQETSVESAVDTPFPAGIFVRLEFKLQQTSCRKRDWKKPECKVRPNGRKRKCLACIKLGSEDKVLGRLVHCPIETQVLREAEEHQETQCLRVQRAGEDPHSFYFPGQFAFSKALPRS
# modifications: pro-form
# B2: Pre-prochemerin: 163-amino acid protein without chemotactic activity (protein, UniProt Q99969 1-163, looked up)
# chain: MRRLLIPLALWLGAVGVGVAELTEAQRRGLQVALEEFHKHPPVQWAFQETSVESAVDTPFPAGIFVRLEFKLQQTSCRKRDWKKPECKVRPNGRKRKCLACIKLGSEDKVLGRLVHCPIETQVLREAEEHQETQCLRVQRAGEDPHSFYFPGQFAFSKALPRS
# modifications: full-length
# Key:
# [1] = no reference given
# chemerin receptor = settings: Y1 missing or substituted by alanine; ref [17]
# FPR1 [2] = settings: ref [38]
# FPR1 [3] = settings: tripeptide; ref [26], [27]
# [4] = ref [15], [16]
molecule,measurement,setting,value
Asp-Arg-Val-Tyr-Ile-His-Pro-Phe [AngII],chemotactic activity,[1],does not display chemotactic activity
"Y1 missing: C9 when Y1 was missing (FPGQFAFS; UniProt Q99969 150-157, looked up, fragment)",reduced activity in functional assays,chemerin receptor,~ 30%
fMLF,dissociation constant,FPR1 [2],low nanomolar range
same,agonistic activity at FPR1,FPR1 [3],full agonistic activity
B1,chemotactic activity / bioactivity of chemerin form,[4],low bioactivity
B2,chemotactic activity / bioactivity of chemerin form,[4],without chemotactic activity
